{"source": "paper PMC7799360", "about": "“Reprogramming immunosuppressive myeloid cells facilitates immunotherapy for colorectal cancer” (EMBO Molecular Medicine, 2020)", "key": {"ADRA1D": {"target": "T1, ADRA1D (Homo sapiens, UniProt P25100)", "T1 construct": "Pharmaron (Beijing, China) performed the assay", "T1 sequence (P25100 whole entry, species assumed)": "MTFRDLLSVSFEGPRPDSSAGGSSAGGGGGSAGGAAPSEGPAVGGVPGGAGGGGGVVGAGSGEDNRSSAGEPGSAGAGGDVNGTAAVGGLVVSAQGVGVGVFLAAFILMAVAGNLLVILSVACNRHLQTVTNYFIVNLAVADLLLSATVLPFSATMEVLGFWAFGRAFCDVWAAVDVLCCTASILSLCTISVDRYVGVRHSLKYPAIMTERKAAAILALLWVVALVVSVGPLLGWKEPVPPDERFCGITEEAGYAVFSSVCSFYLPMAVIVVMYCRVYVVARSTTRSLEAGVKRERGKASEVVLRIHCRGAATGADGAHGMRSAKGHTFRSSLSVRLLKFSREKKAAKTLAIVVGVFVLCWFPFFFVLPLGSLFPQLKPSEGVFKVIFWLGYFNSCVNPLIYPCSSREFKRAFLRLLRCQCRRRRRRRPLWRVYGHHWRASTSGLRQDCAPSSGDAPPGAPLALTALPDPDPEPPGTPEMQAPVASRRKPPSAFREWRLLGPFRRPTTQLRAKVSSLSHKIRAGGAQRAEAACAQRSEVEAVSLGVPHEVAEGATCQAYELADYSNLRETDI", "experiment": "GPCR calcium flux assay", "type": "cell-based"}, "DRD1": {"target": "T2, DRD1 (Homo sapiens, UniProt P21728)", "T2 construct": "Pharmaron (Beijing, China), contract laboratory", "T2 sequence (P21728 whole entry, species assumed)": "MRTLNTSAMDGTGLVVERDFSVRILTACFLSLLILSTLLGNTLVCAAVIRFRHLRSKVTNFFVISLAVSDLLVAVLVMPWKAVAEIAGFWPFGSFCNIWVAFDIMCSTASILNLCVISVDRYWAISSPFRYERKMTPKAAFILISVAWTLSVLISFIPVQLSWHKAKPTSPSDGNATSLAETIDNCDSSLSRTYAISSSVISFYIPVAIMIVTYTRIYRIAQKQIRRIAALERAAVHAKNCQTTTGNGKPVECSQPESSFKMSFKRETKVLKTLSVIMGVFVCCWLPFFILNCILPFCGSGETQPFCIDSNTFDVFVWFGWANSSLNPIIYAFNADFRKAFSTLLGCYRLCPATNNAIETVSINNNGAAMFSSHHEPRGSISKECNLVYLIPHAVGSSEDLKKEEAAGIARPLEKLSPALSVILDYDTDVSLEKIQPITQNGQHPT", "experiment": "GPCR calcium flux assay", "type": "cell-based"}, "[1]": {"experiment": "Pharmacokinetics in CD1 mice", "type": "in vivo, mouse", "settings": "for AUC(0-t): read-out: AUC0-24", "description": "5% (v/v) dimethyl sulfoxide ( DMSO), 10% solutol, and 85% β -cyclodextrin) to male CD1 mice (n = 3). Blood samples were collected at 0.08, 0.25, 0.5, 1, 2, 4, 8, and 24 hr after administration. After suitable sample preparation, the concentration of TP -16 in plasma samples was determine d by the Agilent 1290 HPLC system, coupled with a 6460 triple -quadrupole mass spectrometer and an Agilent Jet Stream electrospray ionization (ESI) source (Agilent\nTechnologies, USA). Pharmacokinetic parameters were calculated by WinNonlin software version 7.0 based on non -compartmental analysis\n(Pharsight Corporation, Mountain View, USA). […]"}, "[2]": {"experiment": "14-day repeat-dose toxicity study in Sprague Dawley rats", "type": "in vivo", "settings": "for Nasal cavity: Normal: animals normal/examined", "description": "(three males and three females). […]\norally administrated once daily for 14 days. Abnormal behaviors and mortality\nwere observed every day and b ody weight was recorded every three days.\nAnimals were sacrificed on day 15, and blood parameters and organ\nmorphology were recorded. […]"}, "[3]": {"test_system": "AOM/DSS-induced colorectal tumors", "experiment": "AOM/DSS-induced colorectal cancer model", "type": "in vivo, mouse", "settings": "AOM/DSS mice, TP-16 75 mg/kg po daily, anti-PD-1 50 μg ip twice weekly, 5 weeks", "description": "; i.p.; Sigma‐Aldrich, St. Louis, MO, USA). After 1 week of rest, mice were provided with 2.5% DSS (MP Biomedicals, Santa Ana, CA, USA) in their drinking water for 5 days, followed by DSS‐free water for two weeks. The DSS treatment cycle was carried out three times in total, and mice were randomized into four groups and subjected to the therapeutic protocol. Mice were sacrificed at 37 days after the indicated treatments.\nSingle agent or combination treatment was designed as follows: TP‐16 (37.5, 75, 150 mg/kg) or celecoxib (100 mg/kg) was formulated in 0.5% carboxymethylcellulose sodium (CMC‐Na, Sangon Biotech, Shanghai, China) and administered via oral gavage daily. In vivo anti‐PD1 antibody (clone RMP1‐14, BioXCell, West Lebanon, NH, USA) and rat IgG2a isotype control (clone 2A3, BioXCell) were diluted in sterile PBS and administered intraperitoneally at a dose of 50 μg twice weekly."}, "STAT3 and AKT signaling": {"test_system": "STAT3 and AKT signaling", "experiment": "Western blot of p-STAT3 and p-AKT in bone marrow-derived macrophages", "type": "cell-based, mouse", "settings": "BMMs, IL-4 20 ng/ml + 100 nM PGE2, 10 μM TP-16", "description": "Briefly, cells and tumor tissues were lysed with radio immunoprecipitation assay buffer containing phosphatase and protease inhibitor cocktail (MedChemExpress, Monmouth Junction, NJ, USA). A total of 30‐80 μg of normalized total proteins from lysates were run on 6‐10% SDS‐polyacrylamide gels. The proteins transferred from gels to nitrocellulose membranes (Millipore, Billerica, MA, USA) were incubated with primary antibodies overnight at 4°C, washed, and incubated with secondary antibodies for 1 h at room temperature. Visual signals were detected using the LI‐COR Odyssey Infrared Imaging System (LI‐COR Biosciences, Lincoln, NE). Mouse protein primary antibodies used for Western blotting were listed as follows: COX2 (1:1000 dilution, 12282, CST), p‐Stat3 (1:2000 dilution, Tyr^705, 9145, CST), Stat3 (1:1000 dilution, 9139, CST), p‐Akt (1:2000 dilution, Ser^473, 4060, CST), Akt (1:1000 dilution, 9272, CST), Arg‐1 (1:100 dilution, 16001, Proteintech, Rosemont, IL), and GAPDH (1:10000 dilution, Ab181602, Abcam)."}, "[4]": {"settings": "male, mouse, plasma, iv, I.V. 1 mg/kg"}, "[5]": {"settings": "male, mouse, plasma, po, P.O. 10 mg/kg"}, "[6]": {"settings": "female, Sprague-Dawley, rat, in vivo, 100 mg/kg/day, 14 days"}, "[7]": {"settings": "male, Sprague-Dawley, rat, in vivo, 100 mg/kg/day, 14 days"}}, "note": "Where two headings read alike, the source gives them in different places."}
{"smiles": "C[C@H](NC(=O)c1c(Cc2ccc(F)cc2)sc2c1CCOC2)c1ccc(C(=O)O)cc1", "note": "[TP-16]", "values": [{"measurement": "IC50", "setting": "ADRA1D", "result": "> 10", "unit": "µM"}, {"measurement": "IC50", "setting": "DRD1", "result": "> 10", "unit": "µM"}, {"measurement": "Vd/F", "setting": "[1]; I.V. 1 mg/kg", "result": 2.016, "unit": "L/kg"}, {"measurement": "bioavailability", "setting": "[1]; male, mouse, plasma, 10 mg/kg, ratio of oral AUC0-∞ to intravenous AUC0-∞", "result": 40.1, "unit": "%"}, {"measurement": "AUC(0-inf)", "setting": "[1]; [4]", "result": 2140, "unit": "ng·h/mL"}, {"measurement": "C0", "setting": "[1]; [4]", "result": 2370, "unit": "ng/mL"}, {"measurement": "MRT", "setting": "[1]; [4]", "result": 2.1, "unit": "h"}, {"measurement": "half-life", "setting": "[1]; [4]", "result": 3, "unit": "h"}, {"measurement": "AUC(0-t)", "setting": "[1]; [4]", "result": 2140, "unit": "ng·h/mL"}, {"measurement": "AUC(0-inf)", "setting": "[1]; [5]", "result": 8580, "unit": "ng·h/mL"}, {"measurement": "CL/F", "setting": "[1]; [5]", "result": 19.4, "unit": "mL/min/kg"}, {"measurement": "Cmax", "setting": "[1]; [5]", "result": 3850, "unit": "ng/mL"}, {"measurement": "MRT", "setting": "[1]; [5]", "result": 3.7, "unit": "h"}, {"measurement": "half-life", "setting": "[1]; [5]", "result": 5.4, "unit": "h"}, {"measurement": "AUC(0-t)", "setting": "[1]; [5]", "result": 8400, "unit": "ng·h/mL"}, {"measurement": "Vd/F", "setting": "[1]; male, mouse, plasma, po, P.O. 10 mg/kg, read-out: Vd/F", "result": 9.08, "unit": "L/kg"}, {"measurement": "Nasal cavity: Normal", "setting": "[2]; female rats, 100 mg/kg/day, 14 days", "result": "3/3"}, {"measurement": "Brain: Normal", "setting": "[2]; [6]", "result": "3/3"}, {"measurement": "Cervical lymph node: Normal", "setting": "[2]; [6]", "result": "3/3"}, {"measurement": "Colon: Normal", "setting": "[2]; [6]", "result": "3/3"}, {"measurement": "Duodenum: Normal", "setting": "[2]; [6]", "result": "3/3"}, {"measurement": "Esophagus: Normal", "setting": "[2]; [6]", "result": "3/3"}, {"measurement": "Eye: Normal", "setting": "[2]; [6]", "result": "3/3"}, {"measurement": "Femur/Bone marrow: Normal", "setting": "[2]; [6]", "result": "3/3"}, {"measurement": "Harderian gland: Normal", "setting": "[2]; [6]", "result": "3/3"}, {"measurement": "Heart: Normal", "setting": "[2]; [6]", "result": "3/3"}, {"measurement": "Ileum: Normal", "setting": "[2]; [6]", "result": "3/3"}, {"measurement": "Jejunum: Normal", "setting": "[2]; [6]", "result": "3/3"}, {"measurement": "Kidney: Normal", "setting": "[2]; [6]", "result": "3/3"}, {"measurement": "Liver: Normal", "setting": "[2]; [6]", "result": "3/3"}, {"measurement": "Lung: Normal", "setting": "[2]; [6]", "result": "3/3"}, {"measurement": "Mesenteric lymph node: Normal", "setting": "[2]; [6]", "result": "3/3"}, {"measurement": "Ovary: Normal", "setting": "[2]; [6]", "result": "3/3"}, {"measurement": "Pancreas: Normal", "setting": "[2]; [6]", "result": "3/3"}, {"measurement": "Parathyroid gland: Normal", "setting": "[2]; [6]", "result": "3/3"}, {"measurement": "Pituitary gland: Normal", "setting": "[2]; [6]", "result": "3/3"}, {"measurement": "Preputial/Clitoral gland: Normal", "setting": "[2]; [6]", "result": "3/3"}, {"measurement": "Rectum: Normal", "setting": "[2]; [6]", "result": "3/3"}, {"measurement": "Salivary gland: Normal", "setting": "[2]; [6]", "result": "3/3"}, {"measurement": "Skin/ Mammary gland: Normal", "setting": "[2]; [6]", "result": "3/3"}, {"measurement": "Spleen: Normal", "setting": "[2]; [6]", "result": "3/3"}, {"measurement": "Stomach: Normal", "setting": "[2]; [6]", "result": "3/3"}, {"measurement": "Testis: Normal", "setting": "[2]; [6]", "result": "3/3"}, {"measurement": "Thymus: Normal", "setting": "[2]; [6]", "result": "3/3"}, {"measurement": "Thyroid gland: Normal", "setting": "[2]; [6]", "result": "3/3"}, {"measurement": "Trachea: Normal", "setting": "[2]; [6]", "result": "3/3"}, {"measurement": "Urinary bladder: Normal", "setting": "[2]; [6]", "result": "3/3"}, {"measurement": "Uterus: Normal", "setting": "[2]; [6]", "result": "3/3"}, {"measurement": "Vagina: Normal", "setting": "[2]; [6]", "result": "3/3"}, {"measurement": "Nasal cavity: Normal", "setting": "[2]; male rats, 100 mg/kg/day, 14 days", "result": "3/3"}, {"measurement": "Brain: Normal", "setting": "[2]; [7]", "result": "3/3"}, {"measurement": "Cervical lymph node: Normal", "setting": "[2]; [7]", "result": "3/3"}, {"measurement": "Colon: Normal", "setting": "[2]; [7]", "result": "3/3"}, {"measurement": "Duodenum: Normal", "setting": "[2]; [7]", "result": "3/3"}, {"measurement": "Epididymis: Normal", "setting": "[2]; [7]", "result": "3/3"}, {"measurement": "Esophagus: Normal", "setting": "[2]; [7]", "result": "3/3"}, {"measurement": "Eye: Normal", "setting": "[2]; [7]", "result": "3/3"}, {"measurement": "Femur/Bone marrow: Normal", "setting": "[2]; [7]", "result": "3/3"}, {"measurement": "Harderian gland: Normal", "setting": "[2]; [7]", "result": "3/3"}, {"measurement": "Heart: Normal", "setting": "[2]; [7]", "result": "3/3"}, {"measurement": "Ileum: Normal", "setting": "[2]; [7]", "result": "3/3"}, {"measurement": "Jejunum: Normal", "setting": "[2]; [7]", "result": "3/3"}, {"measurement": "Kidney: Normal", "setting": "[2]; [7]", "result": "3/3"}, {"measurement": "Liver: Normal", "setting": "[2]; [7]", "result": "3/3"}, {"measurement": "Lung: Normal", "setting": "[2]; [7]", "result": "3/3"}, {"measurement": "Mesenteric lymph node: Normal", "setting": "[2]; [7]", "result": "3/3"}, {"measurement": "Pancreas: Normal", "setting": "[2]; [7]", "result": "3/3"}, {"measurement": "Parathyroid gland: Normal", "setting": "[2]; [7]", "result": "3/3"}, {"measurement": "Pituitary gland: Normal", "setting": "[2]; [7]", "result": "3/3"}, {"measurement": "Preputial/Clitoral gland: Normal", "setting": "[2]; [7]", "result": "3/3"}, {"measurement": "Prostate: Normal", "setting": "[2]; [7]", "result": "3/3"}, {"measurement": "Rectum: Normal", "setting": "[2]; [7]", "result": "3/3"}, {"measurement": "Salivary gland: Normal", "setting": "[2]; [7]", "result": "3/3"}, {"measurement": "Seminal vesicle: Normal", "setting": "[2]; [7]", "result": "3/3"}, {"measurement": "Skin/ Mammary gland: Normal", "setting": "[2]; [7]", "result": "3/3"}, {"measurement": "Spleen: Normal", "setting": "[2]; [7]", "result": "3/3"}, {"measurement": "Stomach: Normal", "setting": "[2]; [7]", "result": "3/3"}, {"measurement": "Testis: Normal", "setting": "[2]; [7]", "result": "3/3"}, {"measurement": "Thymus: Normal", "setting": "[2]; [7]", "result": "3/3"}, {"measurement": "Thyroid gland: Normal", "setting": "[2]; [7]", "result": "3/3"}, {"measurement": "Trachea: Normal", "setting": "[2]; [7]", "result": "3/3"}, {"measurement": "Urinary bladder: Normal", "setting": "[2]; [7]", "result": "3/3"}, {"measurement": "body weight during 14-day treatment", "setting": "[2]; rat, in vivo, po, 100 mg/kg", "result": "without statistically significant weight loss"}, {"measurement": "hematological analysis, overall finding", "setting": "[2]; rat, in vivo, po, 100 mg/kg", "result": "no adverse changes"}, {"measurement": "organ morphology, overall finding", "setting": "[2]; rat, in vivo, po, 100 mg/kg", "result": "no abnormalities"}, {"measurement": "tumor number (multiplicity) and size", "setting": "[3]", "result": "moderately reduced"}, {"measurement": "IL-4/PGE2-induced phosphorylation of STAT3 and AKT", "setting": "STAT3 and AKT signaling", "result": "significantly reversed"}]}
